Measurements taken from article PMC10349806 (Nature Communications, 2023).
Residue numbers refer to the chain shown, from its start. Values joined by “and” are separate entries in the source; they are usually repeats but may differ in a detail not shown here. Identical values can stand only once.

Columns and labels:
[1] = target: T1, PfCRT variant H46A (Plasmodium falciparum, UniProt Q9N623, A220S/H46A/I356T/K76T/M74I/N326S/N75E/Q271E/R371I); assay: CQ uptake assay, oocytes expressing H46A; type: cell-based
T1 sequence (Q9N623 1-424 H46A/M74I/N75E/K76T/A220S/Q271E/N326S/I356T/R371I): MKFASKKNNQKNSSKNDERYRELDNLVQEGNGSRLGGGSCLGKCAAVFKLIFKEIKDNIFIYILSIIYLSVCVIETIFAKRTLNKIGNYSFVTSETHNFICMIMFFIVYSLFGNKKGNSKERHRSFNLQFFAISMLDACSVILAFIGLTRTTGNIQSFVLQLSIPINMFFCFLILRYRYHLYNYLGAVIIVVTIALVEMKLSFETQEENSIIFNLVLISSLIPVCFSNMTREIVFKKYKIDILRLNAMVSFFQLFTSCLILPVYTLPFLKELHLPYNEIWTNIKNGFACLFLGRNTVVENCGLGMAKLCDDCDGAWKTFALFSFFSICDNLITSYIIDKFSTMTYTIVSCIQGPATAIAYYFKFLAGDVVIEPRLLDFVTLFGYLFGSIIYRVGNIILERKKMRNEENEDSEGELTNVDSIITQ
Method: (§1) Site-directed mutagenesis of PfCRT^Dd2 was performed as described using the megaprimer method with overlap extension[21],[54]. The primer pairs used are listed in Supplementary Table 6. Please note that a codon-optimized and oocyte-adapted version of PfCRT^Dd2 was used[22] (Supplementary Fig. 16). The resulting DNA fragment was cloned into the SP64T expression vector and verified by sequencing.
(§2) Oocytes were obtained as described previously. Briefly, adult (>2 years old) female X. laevis frogs (NASCO) were anesthetized in a cooled solution of ethyl 3-amino benzoate methanesulfonate (0.1%, w/v), followed by a surgical removal of parts of the ovary. The ovary lobes were carefully dissected and small pieces of oocytes were incubated in Ca^2+-free ND96 buffer (96 mM NaCl, 2 mM KCl, 1 mM MgCl2 buffered with 5 mM HEPES/NaOH, pH 7.5) supplemented with collagenase D (0.1%, w/v; Roche), BSA (0.5%, w/v), and 9 mm Na2HPO4 at 18 °C for 14-16 h while gentle shaking. After incubation, the oocytes were carefully washed several times with ND96 buffer (96 mM NaCl, 2 mM KCl, 1.8 mM CaCl2, 1 mM MgCl2 buffered with 5 mM HEPES/NaOH, pH 7.5) supplemented with 100 mg l^−1 gentamycin). Defolliculated and healthy-looking stage V-VI oocytes were manually selected for RNA microinjection. The RNA was generated as following: The codon-optimized sequences of PfCRT variants were cloned into the pSP64T expression vector. After vector linearization using the restriction endonucleases BamHI or SalI (New England Biolabs), transcription was performed using the in vitro SP6 mMessage mMachine Kit (Ambion)[34]. The obtained RNA was kept at −80 °C and diluted with nuclease-free water to a concentration of 0.6 μg μl^−1. Precision-bore glass capillary tubes (3.5-inch glass capillaries; Drummond Scientific Co.) were pulled on a vertical puller (P-87 Flaming/Brown micropipette puller, Sutter Instrument Co.), graduated, and placed on a microinjector (Nanoject II Auto-Nanoliter Injector, Drummond Scientific Co.). 50 nl of nuclease-free water alone (control oocytes) or 50 nl of 0.6 μg μl^−1 RNA were injected under stereomicroscopic control. Injected oocytes were incubated for 46–72 h at 18 °C with twice-daily buffer changes before usage in experiments.
Drug uptake assays were performed as described previously[21],[22],[24],[34]. […] The direction of radio-labeled drug transport is here from the mostly acidic extracellular solution (pH 4.5 or 6.0, as indicated) into the oocyte cytosol (pH ∼ 7.2), which corresponds to the efflux of drug from the acidic digestive vacuole (pH 5.2) into the parasite cytoplasm (pH 7.2). The topology of PfCRT in the oolemma is such that both the N- and C-terminus face the extracellular milieu[3],[22]. In the parasite, the N- and C-terminus face the lumen of the digestive vacuole. CQ uptake kinetics were performed by incubating oocytes in ND96 buffer adjusted to a pH of 4.5, 5.0, 5.5, or 6.0 and supplemented with 50 nM [^3H]CQ and one of 7 different CQ concentrations (10 µM, 50 µM, 100 µM, 200 µM, 300 µM, 400 µM, 500 µM CQ). The reaction was stopped at the 60 min time point, which is in the linear uptake range[22],[34] (Supplementary Fig. 17). For determination of the amount of drug uptake for each oocyte, the reaction medium was removed and the oocytes were washed three times with 2 ml of ice-cold ND96 buffer. Each oocyte was individually transferred to a scintillation vial containing 5% sodium dodecyl sulfate (200 μl) for lysis. The radioactivity of each sample was measured using a liquid scintillation analyzer Tri-Carb 4910 TR (PerkinElmer). Oocytes that were injected with water instead of RNA were analyzed in parallel, representing the uptake of a drug by diffusion and/or endogenous permeation pathways. The resulting value represents the “background“ level of drug accumulation in oocytes (in-depth discussion in[22]). […]

[2] = system: PfCRT variant F203A; assay: CQ uptake assay, oocytes expressing F203A; type: cell-based, Plasmodium falciparum
Method: as §1, §2
(§3) Drug uptake assays were performed as described previously[21],[22],[24],[34]. […] The direction of radio-labeled drug transport is here from the mostly acidic extracellular solution (pH 4.5 or 6.0, as indicated) into the oocyte cytosol (pH ∼ 7.2), which corresponds to the efflux of drug from the acidic digestive vacuole (pH 5.2) into the parasite cytoplasm (pH 7.2). The topology of PfCRT in the oolemma is such that both the N- and C-terminus face the extracellular milieu[3],[22]. In the parasite, the N- and C-terminus face the lumen of the digestive vacuole. CQ uptake kinetics were performed by incubating oocytes in ND96 buffer adjusted to a pH of 4.5, 5.0, 5.5, or 6.0 and supplemented with 50 nM [^3H]CQ and one of 7 different CQ concentrations (10 µM, 50 µM, 100 µM, 200 µM, 300 µM, 400 µM, 500 µM CQ). The reaction was stopped at the 60 min time point, which is in the linear uptake range[22],[34] (Supplementary Fig. 17). […] The radioactivity of each sample was measured using a liquid scintillation analyzer Tri-Carb 4910 TR (PerkinElmer). Oocytes that were injected with water instead of RNA were analyzed in parallel, representing the uptake of a drug by diffusion and/or endogenous permeation pathways. […]

[3] = target: T2, PfCRT variant H273A (Plasmodium falciparum, UniProt Q9N623, A220S/H273A/I356T/K76T/M74I/N326S/N75E/Q271E/R371I); assay: CQ uptake assay, oocytes expressing H273A; type: cell-based
T2 sequence (Q9N623 1-424 M74I/N75E/K76T/A220S/Q271E/H273A/N326S/I356T/R371I): T1 sequence (Q9N623 1-424 H46A/M74I/N75E/K76T/A220S/Q271E/N326S/I356T/R371I) with A46H, H273A
Method: as §1, §2, §3

[4] = H46A, 50 µM CQ, 1 h, mean ± SEM
[5] = pH 4.5, single replicates, Fig 1d left
[6] = pH 6.0, single replicates, Fig 1d left
[7] = F203A, 50 µM CQ, 1 h, mean ± SEM
[8] = H273A, 50 µM CQ, 1 h, mean ± SEM

## CCN(CC)CCCC(C)Nc1ccnc2cc(Cl)ccc12 (stereo not shown) [CQ, chloroquine]
[1]; [4]
  Activity at pH 4.5: 2.03 ± 0.27 pmol h-1 oocyte-1
  Activity at pH 6.0: 5.06 ± 0.47 pmol h-1 oocyte-1
[1]; H46A, CQ transport at pH 4.5 / pH 6.0
  R-value: 0.40 ± 0.03
[1]; [5]
  H46A transport activity pH 4.5: 2.52 pmol oocyte-1 h-1 and 1.13 pmol oocyte-1 h-1 and 2.13 pmol oocyte-1 h-1 and 2.35 pmol oocyte-1 h-1
[1]; pH 4.5 vs pH 6.0, Fig 1d left
  H46A R-value: 0.45 and 0.32 and 0.36
[1]; [6]
  H46A transport activity pH 6.0: 5.57 pmol oocyte-1 h-1 and 3.48 pmol oocyte-1 h-1 and 5.92 pmol oocyte-1 h-1 and 5.27 pmol oocyte-1 h-1
[2]; [7]
  Activity at pH 4.5: 0.93 ± 0.19 pmol h-1 oocyte-1
  Activity at pH 6.0: 2.55 ± 0.14 pmol h-1 oocyte-1
[2]; F203A, CQ transport at pH 4.5 / pH 6.0
  R-value: 0.36 ± 0.07
[2]; [5]
  F203A transport activity pH 4.5: 0.48 pmol oocyte-1 h-1 and 1.22 pmol oocyte-1 h-1 and 1.1 pmol oocyte-1 h-1
[2]; [6]
  F203A transport activity pH 6.0: 2.29 pmol oocyte-1 h-1 and 2.47 pmol oocyte-1 h-1 and 2.88 pmol oocyte-1 h-1
[3]; [8]
  Activity at pH 4.5: 0.08 ± 0.04 pmol h-1 oocyte-1
  Activity at pH 6.0: 2.43 ± 0.40 pmol h-1 oocyte-1
[3]; H273A, CQ transport at pH 4.5 / pH 6.0
  R-value: 0.03 ± 0.02
[3]; [5]
  H273A transport activity pH 4.5: 0.17 pmol oocyte-1 h-1 and 0.00 pmol oocyte-1 h-1 and 0.06 pmol oocyte-1 h-1
[3]; [6]
  H273A transport activity pH 6.0: 2.70 pmol oocyte-1 h-1 and 3.11 pmol oocyte-1 h-1 and 1.48 pmol oocyte-1 h-1
